This passage reports IC50 results from publication PMC5075677 (Medical Gas Research, 2016).

Substitutions are numbered along the chain they refer to. Where a name gives a salt, the structure may show the parent alone.

Assay [1] has as its target T1, heme oxygenase-2 (Homo sapiens, UniProt P30519, C265A/C282A).
T1 sequence (P30519 1-316 C265A/C282A): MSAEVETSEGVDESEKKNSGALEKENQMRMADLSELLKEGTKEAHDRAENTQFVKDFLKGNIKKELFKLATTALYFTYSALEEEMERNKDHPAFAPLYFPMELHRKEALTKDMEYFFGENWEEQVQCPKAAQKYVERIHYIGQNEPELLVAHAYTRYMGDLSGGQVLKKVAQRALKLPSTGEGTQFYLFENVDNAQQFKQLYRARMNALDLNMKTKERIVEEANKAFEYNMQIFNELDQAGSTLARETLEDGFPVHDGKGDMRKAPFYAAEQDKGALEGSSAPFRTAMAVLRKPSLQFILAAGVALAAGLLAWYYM
Type of assay: biochemical.

Assay [2] addresses T2, heme oxygenase-2 (Homo sapiens, UniProt P30519).
T2 sequence (P30519 1-316): T1 sequence (P30519 1-316 C265A/C282A) with A265C, A282C
Format: biochemical.

Regarding `c1ccc(CCn2c(CN3CCCC3)nc3ccccc32)cc1` [QC-2350, 1-(2-phenylethyl)-2-(pyrrolidin-1-ylmethyl)-1H-benzimidazole dihydrochloride], the IC50 (in general, the midpoint of a concentration-inhibition curve) on heme oxygenase-2 [1] was 29 µM; against heme oxygenase-2 [2] it was 20 µM.
